From ChEMBL document CHEMBL5029142, “Stapled Wasp Venom-Derived Oncolytic Peptides with Side Chains Induce Rapid Membrane Lysis and Prolonged Immune Responses in Melanoma” (J Med Chem, 2021)
Activity calls are given as the source filed them. The calls are words filed in the database; no cut-off is given here. Starred links: 1 amine or outer side, 2 acyl side, 3 side chain; linkers in the order of their positions; H or OH if unused. Positions of bridges follow the written chain, without caps; N, C: chain ends. Non-standard residues stand in square brackets, D forms with d. Residues, ends and D or L forms follow the SMILES beside them. ξ: configuration not given here. ξαMeNle(6-ylidene) = CC(CCCC=[*:3])(N[*:1])C(=O)[*:2]; X1 = CC(C)C[C@@](CCCC=[*:3])(N[*:1])C(=O)[*:2]; X2 = NCCCC[C@@](CCCC=[*:3])(N[*:1])C(=O)[*:2]; Dip = N[C@H](C(=O)O)C(c1ccccc1)c1ccccc1; S5 = C=CCCC[C@](C)(N)C(=O)O

Experiments:
[1] = system: 4T1; experiment: Antiproliferative activity against triple-negative mouse 4T1 cells assessed as inhibition of cell growth measured after 24 hrs by Cell Counting Kit-8 assay; format: functional, cell-based; conditions: 4T1, 24 h
[2] = system: B16-F10; experiment: Antiproliferative activity against mouse B16-F10 cells assessed as inhibition of cell growth measured after 24 hrs by Cell Counting Kit-8 assay; format: functional, cell-based; conditions: B16-F10, 24 h
[3] = system: 4T1; experiment: Cytotoxicity against mouse 4T1 cells assessed as loss of membrane integrity by measuring increase in LDH release incubated for 24 hrs by LDH release assay; format: functional, cell-based
[4] = Hemolytic activity in mouse RBC assessed as hemoglobin release at 20 to 80 uM incubated for 1 hr by absorbance based method; format: tissue-based; conditions: erythrocyte, dose 20-80 µM
[5] = system: 4T1; experiment: Cytotoxicity against mouse 4T1 cells assessed as increase in extracellular ATP level at 50 uM measured up to 60 mins by luminometric method; format: functional, cell-based; conditions: time min <=60
[6] = system: 4T1; experiment: Induction of morphological changes in mouse 4T1 cells assessed as change in adhesion measured up to 10 mins by bright field 3D live-cell imaging analysis; format: functional, cell-based; conditions: time min <=10
[7] = system: 4T1; experiment: Induction of morphological changes in mouse 4T1 cells assessed as appearance of broken cell particles measured after 5 mins by bright field 3D live-cell imaging analysis; format: functional, cell-based
[8] = system: 4T1; experiment: Cytotoxicity against mouse 4T1 cells assessed as disruption of cells by measuring increase in red fluorescence at 10 uM measured up to 3 hrs by calcein-AM and PI dual staining based live/dead cell viability assay; format: functional; conditions: time hrs <=3
[9] = Stability of the compound assessed as alpha chymotrypsin (unknown origin)-mediated proteolysis by measuring degradation half life at 1 mM measured up to 12 hrs by HPLC analysis; format: ADME; conditions: human; for half-life at 1000 µM: alpha-chymotrypsin
[10] = Stability of the compound assessed as alpha chymotrypsin (unknown origin)-mediated proteolysis by measuring parent compound remaining at 1 mM measured up to 12 hrs by HPLC analysis; format: ADME; conditions: human, read-out: Stability
[11] = Toxicity in 4T1 tumor bearing BALB/c mouse assessed as increase in body weight at 1 mg, IT administered once daily for 3 consecutive days starting from day 2 post inoculation; conditions: in vivo, other, 72 h, time 3 day
[12] = system: 4T1; experiment: Antitumor activity against mouse 4T1 cells implanted in BALB/c mouse assessed as inhibition of tumor progression at 1 mg, IT administered once daily for 3 consecutive days starting from day 2 post inoculation; format: functional, cell-based; conditions: time 3.0 day
[13] = system: 4T1; experiment: Antitumor activity against mouse 4T1 cells implanted in BALB/c mouse assessed as necrosis at 1 mg, IT administered once daily for 3 consecutive days starting from day 2 post inoculation and measured on day 7 by hematoxylin-eosin staining based assay; format: functional, cell-based; conditions: time 7.0 day
[14] = system: 4T1; experiment: Antitumor activity against mouse 4T1 cells implanted in BALB/c mouse assessed as necrosis at 1 mg, IT administered once daily for 3 consecutive days starting from day 2 post inoculation and measured on day 18 by hematoxylin-eosin staining based assay; format: functional, cell-based; conditions: time 18.0 day
[15] = system: B16-F10; experiment: Antitumor activity against mouse B16-F10 cells implanted in C57 mouse assessed as reduction in tumor growth at 1 mg, IT administered once daily for 3 consecutive days starting from day 5 post inoculation; format: functional, cell-based; conditions: time 3.0 day
[16] = system: B16-F10; experiment: Antitumor activity against mouse B16-F10 cells implanted in C57 mouse assessed as induction of cell necrosis by measuring reduction in live cells at 1 mg, IT administered once daily for 3 consecutive days starting from day 5 post inoculation and measured after 10 to 14 days by hematoxylin-eosin staining based assay; format: functional; conditions: time 10-14 day
[17] = Toxicity in B16-F10 tumor bearing C57 mouse assessed as change in body weight at 1 mg, IT administered once daily for 3 consecutive days starting from day 5 post inoculation; conditions: in vivo, other, 72 h, time 3 day
[18] = system: 4T1; experiment: Antitumor immunity against mouse 4T1 cells implanted in […] mouse assessed as surface translocation of calreticulin at IC75 measured after 6 hrs by DiR/Hoechst 33342 staining based confocal microscopic analysis; format: functional, cell-based
[19] = system: B16-F10; experiment: Antitumor immunity against mouse B16-F10 cells implanted in C57 mouse assessed as surface translocation of calreticulin at IC75 measured after 6 hrs by DiR/Hoechst 33342 staining based confocal microscopic analysis; format: functional, cell-based
[20] = system: 4T1; experiment: Antitumor immunity against mouse 4T1 cells implanted in […] mouse assessed as release of HMGB-1 at IC75 measured after 6 hrs by Hoechst 33342 staining based confocal microscopic analysis; format: functional, cell-based
[21] = system: B16-F10; experiment: Antitumor immunity against mouse B16-F10 cells implanted in C57 mouse assessed as release of HMGB-1 at IC75 measured after 6 hrs by Hoechst 33342 staining based confocal microscopic analysis; format: functional, cell-based
[22] = system: 4T1; experiment: Antitumor activity against mouse 4T1 cells implanted in […] mouse assessed as increase in infiltration of CD4 positive T lymphocytes in tumors at 1 mg, IT administered once daily for 3 consecutive days starting from day 2 post inoculation and measured after 7 days by histochemical staining based analysis; format: functional, cell-based; conditions: time 7.0 day
[23] = system: 4T1; experiment: Antitumor activity against mouse 4T1 cells implanted in […] mouse assessed as increase in infiltration of CD8 positive T lymphocytes in tumors at 1 mg, IT administered once daily for 3 consecutive days starting from day 2 post inoculation and measured after 7 days by histochemical staining based analysis; format: functional, cell-based; conditions: time 7.0 day
[24] = system: B16-F10; experiment: Antitumor activity against mouse B16-F10 cells implanted in C57 mouse assessed as increase in infiltration of CD4 positive T cells into tumors at 1 mg, IT administered once daily for 3 consecutive days starting from day 5 post inoculation and measured after 10 days by histochemical staining based analysis; format: functional, cell-based; conditions: time 10.0 day
[25] = system: B16-F10; experiment: Antitumor activity against mouse B16-F10 cells implanted in C57 mouse assessed as increase in infiltration of CD8 positive T cells into tumors at 1 mg, IT administered once daily for 3 consecutive days starting from day 5 post inoculation and measured after 10 days by histochemical staining based analysis; format: functional, cell-based; conditions: time 10.0 day
[26] = Hemolytic activity in mouse RBC assessed as hemoglobin release at 80 uM incubated for 1 hr by absorbance based method relative to control; format: ADME, tissue-based, Erythrocyte; conditions: mouse red blood cells, read-out: Activity
[27] = system: 4T1; experiment: Cytotoxicity against mouse 4T1 cells assessed as permeabilization in to cell membrane at 10 uM measured up to 3 hrs by calcein-AM and PI dual staining based live/dead cell viability assay; format: functional; conditions: time hrs <=3, TDE = time-dependent effect
[28] = system: B16-F10; experiment: Antitumor immunity against mouse B16-F10 cells implanted in anti-CD8 positive antibody stimulated C57 mouse assessed as inhibition of tumor progression at 1 mg, IT administered once daily for 3 consecutive days starting from day 7 and measured after 20 days; format: functional, cell-based; conditions: time 20.0 day
[29] = system: B16-F10; experiment: Antitumor immunity against mouse B16-F10 cells implanted in anti-CD8 positive antibody stimulated C57 mouse assessed as inhibition of tumor progression at 1 mg, IT administered once daily for 3 consecutive days starting from day 7 and measured after 40 days; format: functional, cell-based; conditions: time 40.0 day

## CC(C)C[C@H](NC(=O)CN)C(=O)N[C@@H](CC(C)C)C(=O)N[C@@H](CCCCN)C(=O)N[C@@H](CCCNC(=N)N)C(=O)N[C@@]1(C)CCC/C=C\CCC[C@@](C)(C(N)=O)NC(=O)[C@H](CC(C)C)NC(=O)[C@H]([C@@H](C)O)NC(=O)[C@H](CCCCN)NC1=O (H-GLLKR[S5]KTL[S5]-NH2; staple (Z) 6-10)
[1]
  IC50: 31.2 µM
[2]
  IC50: 66.1 µM

## CC[C@H](C)[C@@H]1NC(=O)[C@@](C)(NC(=O)[C@H](CCCCN)NC(=O)[C@H](CC(C)C)NC(=O)[C@H](CC(C)C)NC(=O)CN)CCC/C=C\CCC[C@@](C)(C(=O)N[C@@H](CC(C)C)C(N)=O)NC(=O)[C@H]([C@@H](C)O)NC(=O)[C@H](CCCCN)NC1=O (H-GLLK[S5]IKT[S5]L-NH2; staple (Z) 5-9)
[1]
  IC50: 5.15 µM
[2]
  IC50: 15.7 µM

## CC[C@H](C)[C@@H]1NC(=O)[C@H](CCCNC(=N)N)NC(=O)[C@@](C)(NC(=O)[C@H](CC(C)C)NC(=O)[C@H](CC(C)C)NC(=O)CN)CCC/C=C\CCC[C@@](C)(C(=O)N[C@@H](CC(C)C)C(=O)N[C@@H](CC(C)C)C(N)=O)NC(=O)[C@H](CCCCN)NC1=O (H-GLL[S5]RIK[S5]LL-NH2; staple (Z) 4-8)
[1]
  IC50: 33.5 µM
[2]
  IC50: 59.7 µM

## CC[C@H](C)[C@@H]1NC(=O)[C@H](CCCNC(=N)N)NC(=O)[C@H](CCCCN)NC(=O)[C@@](C)(NC(=O)[C@H](CC(C)C)NC(=O)CN)CCC/C=C\CCC[C@@](C)(C(=O)N[C@H](C(=O)N[C@@H](CC(C)C)C(=O)N[C@@H](CC(C)C)C(N)=O)[C@@H](C)O)NC1=O (H-GL[S5]KRI[S5]TLL-NH2; staple (Z) 3-7)
[3]
  Activity: Dose-Dependent Effect
[1]
  IC50: 4.02 µM
[2]
  IC50: 16.1 µM
[4]
  Activity: Toxic
[5]
  Activity: Active
[6]
  Activity: Active
[7]
  Activity: Active
[8]
  Activity: Active
[9]; 12 h, 1000 µM
  Stability: Stable
[10]
  remaining at 12 h, 1000 µM: > 60%
[11]
  Activity: Non-Toxic
[12]
  Activity: inactive
[13]
  Activity: Active
[14]
  Activity: inactive
[15]
  Activity: Active
[16]
  Activity: Active
[17]
  Activity: Non-Toxic
[18]
  Activity: Active
[19]
  Activity: Active
[20]
  Activity: Active
[21]
  Activity: Active
[22]
  Activity: inactive
[23]
  Activity: inactive
[24]
  Activity: Active
[25]
  Activity: Active

## CC[C@H](C)[C@@H]1NC(=O)[C@H](CCCNC(=N)N)NC(=O)[C@H](CCCCN)NC(=O)[C@@](CC(C)C)(NC(=O)[C@H](CC(C)C)NC(=O)CN)CCC/C=C\CCC[C@@](CCCCN)(C(=O)N[C@H](C(=O)N[C@@H](CC(C)C)C(=O)N[C@@H](CC(C)C)C(N)=O)[C@@H](C)O)NC1=O (H-GL[X1]KRI[X2]TLL-NH2; staple (Z) 3-7)
[1]
  IC50: 6.57 µM
[2]
  IC50: 30.4 µM
[26]
  hemolysis at 1 h, 80 µM: < 10%
[27]
  Activity: Tde
[11]
  Activity: Non-Toxic
[12]
  Activity: inactive
[13]
  Activity: Active
[14]
  Activity: inactive
[15]
  Activity: Active
[16]
  Activity: Active
[17]
  Activity: Non-Toxic
[22]
  Activity: inactive
[23]
  Activity: inactive
[24]
  Activity: Active
[25]
  Activity: Active
[28]
  Activity: inactive
[29]
  Activity: inactive

## CC[C@H](C)[C@H](NC(=O)[C@]1(C)CCC/C=C\CCCC(C)(N)C(=O)N[C@@H](CC(C)C)C(=O)N[C@@H](CC(C)C)C(=O)N[C@@H](CCCCN)C(=O)N1)C(=O)N[C@@H](CCCCN)C(=O)N[C@H](C(=O)N[C@@H](CC(C)C)C(=O)N[C@@H](CC(C)C)C(N)=O)[C@@H](C)O (stereo partly drawn) (H-[ξαMeNle(6-ylidene)]LLK[S5]IKTLL-NH2; staple (Z) 1-5)
[1]
  IC50: 5.15 µM
[2]
  IC50: 15.1 µM
[4]
  Activity: Toxic

## CC[C@H](C)[C@H](NC(=O)[C@H](CCCNC(=N)N)NC(=O)[C@H](CCCCN)NC(=O)[C@H](CC(C)C)NC(=O)[C@H](CC(C)C)NC(=O)CN)C(=O)N[C@@H](CCCCN)C(=O)N[C@H](C(=O)N[C@@H](CC(C)C)C(=O)N[C@@H](CC(C)C)C(N)=O)[C@@H](C)O [ANOPLIN] (H-GLLKRIKTLL-NH2)
[3]
  Activity: Dose-Dependent Effect
[1]
  IC50: 191 µM
[2]
  IC50: > 400 µM
[8]
  Activity: inactive
[9]
  half-life at 1000 µM: 12 min
[11]
  Activity: Non-Toxic
[15]
  Activity: inactive
[17]
  Activity: Non-Toxic
[22]
  Activity: inactive
[23]
  Activity: inactive
[24]
  Activity: Active
[25]
  Activity: Active

## NCCCC[C@H](NC(=O)[C@@H](NC(=O)[C@H](Cc1c[nH]c2ccccc12)NC(=O)[C@H](CCCCN)NC(=O)[C@H](CCCCN)NC(=O)[C@H](Cc1c[nH]c2ccccc12)NC(=O)[C@H](Cc1c[nH]c2ccccc12)NC(=O)[C@H](CCCCN)NC(=O)[C@@H](N)CCCCN)C(c1ccccc1)c1ccccc1)C(N)=O [RUXOTEMITIDE] (H-KKWWKKW[Dip]K-NH2)
[3]
  Activity: Dose-Dependent Effect
[5]
  Activity: Active
[8]
  Activity: Active
[9]
  half-life at 1000 µM: 34 min
[11]
  Activity: Non-Toxic
[12]
  Activity: inactive
[13]
  Activity: Active
[14]
  Activity: inactive
[15]
  Activity: Active
[16]
  Activity: Active
[17]
  Activity: Non-Toxic
[22]
  Activity: inactive
[23]
  Activity: inactive
[24]
  Activity: Active
[25]
  Activity: Active
